The assay deals with hyperalgesia in carrageenin paw edema pain model. Briefly: Hyperalgesia in inflammatory pain model (carrageenin paw edema pain model). Type of assay: in vivo. The note with it: SD rat, oral 100 mg/kg 30 minutes before carrageenin, measured 90 minutes after carrageenin; FIG. 1. From the text: The action of Compound (I) on hyperalgesia in pain models was studied. As the pain models, models partially modified from an inflammatory pain model (a carrageenin paw edema pain model) and neuropathic pain models (Bennett model and Chung model) described in documents (Anesth. Analg., 2009, Vol. 108, pp. 1680-1687; Pain, 1988, Vol. 33, pp. 87-107; and Pain, 1992, Vol. 50, pp. 355-363) were used.
To the footpad of the left hind limb of each Crl:CD (SD) rat (male, 6-week old, Charles River Laboratories Japan, Inc.), an 1 w/v % suspension of carrageenin (Zushi Kagaku Laboratory, Inc.) in physiological saline was subcutaneously administered at 0.1 mL/body to produce the carrageenin paw edema pain model. Ninety minutes after the administration of the 1 w/v % suspension of carrageenin in physiological saline, the pain threshold (mmHg) of the footpad of the left hind limb was measured using Analgesy Meter (TK-201, Unicom) wherein the stimulating pressure was set so as to rise from 0 mmHg to 100 mmHg for 10 seconds. Each test compound was suspended in 0.5 w/v % methylcellulose (Wako Pure Chemical Industries, Ltd.), and the obtained solution was orally administered 30 minutes before the administration of the 1 w/v % suspension of carrageenin in physiological saline. […]
(In general: In the carrageenan paw model, swelling and tenderness develop within hours.)

SMILES strings stand for the structures.

For `COc1c(NC(=O)N[C@@H]2Cc3ccccc3[C@@H]2O)cc(C(C)(C)C)cc1[C@@H](O)C(F)(F)F` [Compound 46b, 1-(5-tert-butyl-2-methoxy-3-((R)-2,2,2-trifluoro-1-hydroxyethyl)phenyl)-3-((1S,2R)-1-hydroxy-2,3-dihydro-1H-indene-2-yl)urea], the “pain threshold (mmHg) compared to solvent-administered group” value is recorded as “significantly elevated”.
